# Experimental data taken from ChEMBL document CHEMBL5154663, “Biotinylated curcumin as a novel chemosensitizer enhances naphthalimide-induced autophagic cell death in breast cancer cells” (Eur J Med Chem, 2022).
# The source made the active and inactive calls. The rule behind the calls is not given here.
# How the values were obtained:
# MCF7 [1] = experiment: Antiproliferative activity against human MCF7 cells assessed as cell viability in light irradiation and measured after 48 hrs by MTT assay; type: functional, cell-based; settings: MCF7, light or radiation study
# [2] = Toxicity in BALB/c nude mouse xenografted with human MCF7 cells assessed as effect on body weight at 5 mg/kg, ip administered once daily for 15 days in presence of light irradiation; type: organism-based; settings: in vivo, 360 h, time 15 day
# MCF7 [3] = experiment: Induction of cell membrane permeability in human MCF7 cells at 5 uM in presence of light irradiation by confocal microscopy analysis; type: functional
# MCF7 [4] = experiment: Antiproliferative activity against human MCF7 cells assessed as cell viability in dark incubated for 48 hrs by MTT assay; type: functional, cell-based; settings: MCF7, 48 h
# B16-F10 [5] = experiment: Antiproliferative activity against mouse B16-F10 cells assessed as cell viability in dark incubated for 48 hrs by MTT assay; type: functional, cell-based; settings: B16-F10, 48 h
# B16-F10 [6] = experiment: Antiproliferative activity against mouse B16-F10 cells assessed as cell viability in light irradiation and measured for 48 hrs by MTT assay; type: functional, cell-based; settings: B16-F10, light or radiation study
# MCF7 [7] = experiment: Induction of ROS generation in human MCF7 cells assessed as increase in ROS level at 5 uM for 10 mins by DCFH-DA staining-based flow cytometry; type: functional
# MCF7 [8] = experiment: Potentiation of MCLOP induced increase in HClO level in human MCF7 cells by fluorescence method; type: functional
# [9] = Octanol-water partition coefficient, logP of the compound; type: physicochemical
# MCF7 [10] = experiment: Potentiation of MCLOP induced autophagy in human MCF7 cells assessed as increase in […] protein ratio level at 5 uM and measured after 24 hrs by western blot analysis; type: functional, cell-based
# MCF7 [11] = experiment: Potentiation of MCLOP induced autophagy in human MCF7 cells assessed as decrease in p62 protein level at 5 uM measured after 24 hrs by western blot analysis; type: functional, cell-based
# [12] = Toxicity in BALB/c nude mouse xenografted with human MCF cells assessed as MCLOP induced morphological changes in heart at 5 mg/kg, ip administered once daily for 15 days by H and E staining based analysis; type: organism-based; settings: in vivo, 360 h, time 15 day
# [13] = Toxicity in BALB/c nude mouse xenografted with human MCF cells assessed as MCLOP induced morphological changes in kidney at 5 mg/kg, ip administered once daily for 15 days by H and E staining based analysis; type: organism-based; settings: in vivo, 360 h, time 15 day
# MCF7 [14] = experiment: Potentiation of MCLOP induced cell membrane permeability in human MCF7 cells at 5 uM in presence of light irradiation by confocal microscopy analysis; type: functional
# [15] = Toxicity in BALB/c nude mouse xenografted with human MCF cells assessed as MCLOP induced morphological changes in spleen at 5 mg/kg, ip administered once daily for 15 days by H and E staining based analysis; type: organism-based; settings: in vivo, 360 h, time 15 day
# MCF7 [16] = experiment: Potentiation of MCLOP induced autophagy in human MCF7 cells assessed as induction of autophagosomes formation by measuring increase LC3 puncta at 5 uM measured after 24 hrs by confocal microscopic analysis; type: functional, cell-based
# MCF7 [17] = experiment: Potentiation of MCLOP induced antitumor activity against human MCF7 cells xenografted in Balb/c nude mouse assessed as tumor growth inhibition at 5 mg/kg, ip administered once daily for 15 days in presence of light irradiation; type: functional, organism-based; settings: time 15.0 day
# [18] = Effect on HClO level in human MCF7 cells by fluorescence method; type: functional
# [19] = Toxicity in BALB/c nude mouse xenografted with human MCF cells assessed as MCLOP induced morphological changes in liver at 5 mg/kg, ip administered once daily for 15 days by H and E staining based analysis; type: organism-based; settings: in vivo, 360 h, time 15 day
# [20] = Toxicity in BALB/c nude mouse xenografted with human MCF cells assessed as MCLOP induced morphological changes in lung at 5 mg/kg, ip administered once daily for 15 days by H and E staining based analysis; type: organism-based; settings: in vivo, 360 h, time 15 day
# MCF7 [21] = experiment: Potentiation of MCLOP induced ROS generation in human MCF7 cells assessed as increase in ROS level at 5 uM for 10 mins by DCFH-DA staining-based flow cytometry; type: functional
# MCF7 [22] = experiment: Potentiation of MCLOP induced cell membrane permeability in human MCF7 cells at 5 uM in dark by confocal microscopy analysis; type: functional
# MCF7 [23] = experiment: Cytotoxicity against human MCF7 cells assessed as cell viability at 10 uM incubated for 48 hrs by MTT assay; type: toxicity, cell-based; settings: mcf7, 48 h
# MCF7 [24] = experiment: Potentiation of MCLOP induced antiproliferative activity against human MCF7 cells assessed as cell survial rate in presence of light irradiation at 10 uM and measured after 48 hrs by MTT assay; type: functional
smiles,measurement,setting,value
CN(C)c1ccc2c(c1)Sc1cc(N(C)C)ccc1N2C(=O)NCCN1C(=O)c2cccc3cc([N+](=O)[O-])cc(c23)C1=O,IC50,MCF7 [1],12.7 µM
same,Activity,[2],Non-Toxic
same,fold change (FC),MCF7 [3],4.1
same,IC50,MCF7 [4],> 40 µM
same,IC50,B16-F10 [5],> 40 µM
same,IC50,B16-F10 [6],30.8 µM
same,fold change (FC),MCF7 [7],3.1
CN(C)c1ccc2nc3ccc(N(C)C)cc3[s+]c2c1 [METHYLENE BLUE ANHYDROUS],IC50,MCF7 [1],10.6 µM
same,IC50,MCF7 [4],14.6 µM
same,IC50,B16-F10 [5],7.02 µM
same,IC50,B16-F10 [6],5.48 µM
COc1cc(/C=C/C(=O)CC(=O)/C=C/c2ccc(OC(=O)CCCC[C@@H]3SC[C@@H]4NC(=O)N[C@@H]43)c(OC)c2)ccc1O,fold change (FC),MCF7 [8],2.2
same,logP,[9],0.91
same,Activity,MCF7 [10],Active
same,Activity,[2],Non-Toxic
same,Activity,MCF7 [11],Active
same,Activity,[12],Non-Toxic
same,Activity,[13],Non-Toxic
same,fold change (FC),MCF7 [14],5.3
same,Activity,[15],Non-Toxic
same,Activity,MCF7 [16],Active
same,Activity,MCF7 [17],Active
same,fold change (FC),[18],2.3
same,Activity,[19],Non-Toxic
same,Activity,[20],Non-Toxic
same,fold change (FC),MCF7 [21],5.6
same,Activity,MCF7 [7]; DDE = dose-dependent effect,Dde
same,fold change (FC),MCF7 [22],3
COc1cc(/C=C/C(=O)CC(=O)/C=C/c2ccc(O)c(OC)c2)ccc1O [CURCUMIN],Activity,MCF7 [23],Non-Toxic
same,Activity,MCF7 [24],20%
same,logP,[9],2.04
